From patent publication US20230255955A1, “AMELIORATING AGENT OR PROPHYLACTIC AGENT FOR MUSCLE WEAKNESS SYMPTOM IN DISEASE OR SYNDROME ASSOCIATED WITH METABOLIC DISORDER” (Toray Industries, Inc., priority 2020, published 2023)
Where a name gives a salt, the structure may show the parent alone.

Key:
A549 cells = assay: Tumor volume in malignant tumor model (A549 cells transplanted to nude mice); type: in vivo, mouse; details: oral, every day for 28 days, 0.125 mg/kg and 0.25 mg/kg (both doses); tumor volume on 28th day; vs distilled water administered group
Description: (§1) On malignant tumor model animals obtained by transplanting A549 cells, adenocarcinomic human alveolar basal epithelial cells, to nude mice, an ameliorating action on a muscle weakness by administering (−)-17-(cyclopropylmethyl)-3,14β-dihydroxy-4,5α-epoxy-6β-[N-methyl-trans-3-(3-furyl)acrylamide]morphinan hydrochloride (hereinafter, compound 1) produced in accordance with International Publication No. WO 93/015081 was evaluated. […] For this reason, an evaluation of an ameliorating effect and a prophylactic effect on the muscle weakness symptom is considered to be possible.
(§2) A549 cell subculture was carried out using 10% FBS-containing RPMI 1640 medium. For an evaluation of drug efficacy, 7-week old female BALB/C slc/nu/nu mice (Japan SLC, Inc.) were purchased, acclimated for 1 week and then used. The malignant tumor model animal was created as follows. […] The tumor volume was determined by measuring a tumor diameter using a digital vernier caliper by the following calculating formula. […]
(§3) 43rd to 70th days from cell transplantation, compound 1 was orally administered every day to the malignant tumor model animals for 28 days. […] Using a grip test activity meter (Muromachi Kikai Co., Ltd.), a muscle strength was evaluated by measuring a gripping force of the forelimb on 28th day after starting administration of compound 1 (last day of the administration). […]

[1] = test system: malignant tumor model animals obtained by transplanting A549 cells to nude mice; assay: Gripping force of the forelimb (grip test activity meter) in malignant tumor model; type: in vivo, mouse; details: oral, every day for 28 days, 0.125 mg/kg and 0.25 mg/kg (both doses), 28th day
Description: as §1, §2, §3

SAMP8 mice = assay: Gripping force of the forelimb (grip test activity meter) in senescence-accelerated model; type: in vivo, mouse; details: oral, every day for 28 days, 0.125 mg/kg and 0.25 mg/kg (both doses), 28th day, vs distilled water administered group, Williams' test P<0.05
Description: as §1, with “senescence-accelerated models, SAMP8” for “malignant tumor model animals obtained by transplanting A549 cells, adenocarcinomic human alveolar basal epithelial cells, to nude”, “(compound” for “(hereinafter, compound”
For the evaluation of drug efficacy, 7-week old male SAMP8/TaSlc mice (Japan SLC, Inc.) were purchased, then kept for 9 months and used for the test. For the total of 3 days from 3 days to 1 day before administration of the test substance, a gripping force of the forelimb was measured using a grip test activity meter, an average value of the 3 days was calculated, and then the mice were grouped in such a way that the average of muscle strengths in each group was equal. To clarify that the model is a muscle weakness model, a control of a senescence-accelerated model animal was set. […]
Compound 1 was orally administered to SAMP8 mice every day for 28 days. […] Using a grip test activity meter, the muscle strength was evaluated by measuring a gripping force of the forelimb on 28th day after starting administration of compound 1 (last day of the administration). […]

cancer cachexia patients = details: cited from earlier work

Compound | suppressing action on the tumor volume increase (A549 cells) | gripping force (muscle strength) compared with the model control group [1] | increasing action on the gripping force (muscle strength) ([1]; vs distilled water administered group, Dunnett's test P<0.05) | increasing action on the gripping force (muscle strength) (SAMP8 mice) | ameliorating action on a muscle weakness symptom (physical function) (cancer cachexia patients) | lean body mass (cancer cachexia patients)
CN(C(=O)/C=C/c1ccoc1)[C@@H]1CC[C@@]2(O)[C@H]3Cc4ccc(O)c5c4[C@@]2(CCN3CC2CC2)[C@H]1O5 [compound 1, (−)-17-(cyclopropylmethyl)-3,14β-dihydroxy-4,5α-epoxy-6β-[N-methyl-trans-3-(3-furyl)acrylamide]morphinan hydrochloride] | did not show any suppressing action on the tumor volume increase | ameliorated to the extent that is equal to the gripping force (muscle strength) of the model control group | statistically remarkable increasing action on the gripping force (muscle strength) | statistically remarkable increasing action on the gripping force (muscle strength) |  | 
CN(C)N(C)C(=O)[C@@]1(Cc2ccccc2)CCCN(C(=O)[C@@H](Cc2c[nH]c3ccccc23)NC(=O)C(C)(C)N)C1 [Anamorelin] |  |  |  |  | does not show an ameliorating action on a muscle weakness symptom | increases a lean body mass
C[C@](O)(COc1ccc(C#N)cc1)C(=O)Nc1ccc(C#N)c(C(F)(F)F)c1 [enobosarm] |  |  |  |  | the effect thereof is not acknowledged | increases a lean body mass
